Experimental findings from patent US20250019386A1, “PYRROLO[1,2-b]-2-PYRIDAZINONE COMPOUNDS AS 5-HT4 RECEPTOR AGONISTS” (SUVEN LIFE SCIENCES LIMITED, priority 2022, published 2025) are described below.

For one data set, the target named is 5-HT4 receptors (Homo sapiens (Human), UniProt Q13639). The data set can be described thus: Determination of EC50 values for 5-HT4 receptor (pCRE-Luc reporter assay). The note with it: CHO cells expressing recombinant human 5-HT4 receptor and pCRE-Luc reporter; 4 h incubation; luciferase activity. Format: cell-based. Here is the method:
A stable CHO cell line expressing recombinant human 5-HT4 receptor and pCRE-Luc reporter system was used for cell-based assay. The assay offers a non-radioactive based approach to determine binding of a compound to GPCRs. In this specific assay, the level of intracellular cyclic AMP, which is modulated by activation, or inhibition of the receptor is measured. The recombinant cells harbor luciferase reporter gene under the control of cAMP response element.
The above cells were grown in 96 well clear bottom white plates in Ham's F12 medium containing 10% fetal bovine serum. Prior to the addition of compounds or standard agonist, cells were serum starved overnight. Increasing concentrations of test compounds were added to the cells in OptiMEM medium. The incubation was continued in CO2 incubator at 37° C. with 5% CO2 conditions for 4 h. Medium was removed and cells were washed with phosphate buffered saline. The cells were lysed and luciferase activity was measured in a Luminometer. Concentration-response data was generated using the luciferase assay, following incubation of cells with receptor ligands, were analyzed by subtracting basal levels (i.e. with medium alone), then normalizing values as a percentage of controls (endogenous agonist serotonin (10 μM)). […] EC50 values of the compounds were defined as the concentration required in stimulating the luciferase activity by 50%.
A general note: A reporter such as luciferase makes a cellular process visible.

Data set [1] concerns the target hERG tail currents in HEK293-hERG cells (Homo sapiens (Human), UniProt Q12809). The data set can be described thus: hERG patch-clamp assay. The note with it: whole cell patch-clamp, tail current at -40 mV, read-out: half maximal inhibitory concentration of hERG tail currents (IC50). Format: cell-based. Here is the method:
The HEK293-hERG cells for patch-clamp assay were cultured in DMEM: Ham's F12 (1:1 ratio) with 10% fetal bovine serum containing 0.5 mg/ml of selective antibiotic, G-418 sulfate (Calbiochem) and 0.1% penicillin and streptomycin (Thermofisher, MA, USA) in T-75 flask. Cells were harvested at 70-80% confluency by washing with Hanks' Balanced Salt Solution lacking Mg^2+ and Ca^2+ ions and subsequent addition of accumax (2.5 mL) (Sigma Aldrich, MO, USA) and incubated the flask at 5% CO2 and 37° C. until cells start sliding of the surface. After cells have completely detached from the surface about 10 mL of complete media without selective antibiotic was added and pipetted to detach the cell clumps. Additional 7.5 mL of complete media was added to collect the residual cells in the flask and cell suspension was incubated at 5% CO2 and 37° C. for 30 min. […] The peak current is measured at −40 mV tail currents using Patchliner instrument. The I-V pulse protocol was pulsed every 10 s and online analysis were recorded by substituting the leak current from the peak current and IC50 values were calculated from IGOR PRO software (WaveMetrics, Inc. Portland, OR, USA).
(hERG is a cardiac potassium channel; its block is linked to QT prolongation.)

The nature of data set [2]: Rat brain penetration study. Format: in vivo. The note with it: brain/plasma, oral (gavage) 3 mg/kg, male Wistar rats, brain concentrations below LLOQ taken as zero, read-out: Single dose Brain Penetration (Cb/Cp). Here is the method: Male Wistar rats (225±25 g) were used as experimental animals. Three animals were housed in each cage. Animals were given water and food ad libitum throughout the experiment and maintained on a 12 h light/dark cycle.
Brain penetration was determined in discrete manner in rats. One day prior to dosing day, male Wistar rats were acclimatized. After acclimatization, the rats were grouped according to their weight. In each group, 3 animals were kept in individual cages and allowed free access to food and water. At each time point (0.5, 1, and 2 h) n=3 animals were used.
The compounds of formula (I) were suitably preformulated and administered orally at (free base equivalent) 3 mg/kg. Blood samples were collected via, cardiac puncture by using isoflurane anesthesia. The animals were sacrificed to collect brain tissue. Plasma was separated and brain samples were homogenized and stored frozen at −20° C. until analysis.
The concentrations of the compounds of formula (I) were quantified in plasma and brain homogenate by qualified LC-MS/MS method using a suitable extraction technique. The compounds of formula (I) were quantified in the calibration range of 1-2000 ng/mL in plasma and brain homogenate. Study samples were analyzed using calibration samples in the batch and quality control samples spread across the batch. Extent of brain-plasma ratio was calculated (Cb/Cp). Brain concentrations were found below LLOQ and a value of zero was considered for calculation purposes.

A further data set deals with gastric emptying. The data set can be described thus: Effect on gastric emptying in Beagle dogs (clonidine model of gastroparesis). The data set is classed as in vivo. The note with it: 3 and 10 mg/kg oral. Here is the method:
Six beagle dogs were used for the study in a crossover manner such that all 6 dogs received all the treatments. Each dog was placed in an individual cage after overnight fasting and water removed. To provide a model of gastroparesis, clonidine (α2 adrenergic agonist) at a dose of 10 μg/kg was injected subcutaneously 30 min before test meal administration.
Dogs were orally administered test compound of example 2 at 1, 3 and 10 mg/kg or vehicle or cisapride at 10 mg/kg immediately before the administration of clonidine. The test meal (10 mL/kg), made up of commercially available semi-solid food with 10 mg/kg of acetaminophen (APAP), was provided 30 min after clonidine injection. Blood samples were collected from cephalic vein at 0, 0.25, 0.5, 0.75, 1.0, 1.25, 1.5 & 2.0 h after test meal administration and then plasma was separated by centrifugation. Plasma concentrations of APAP were determined by in-house methods using LC-MS/MS.

For the next data set, the system named is colonic transit. The data set can be described thus: Effect on colonic transit in Swiss mice. Format: in vivo, Male Swiss mice. The note with it: 1 and 3 mg/kg, p.o., carmine dye, 3 h after dye. On the procedure:
Male Swiss mice of body weight ˜20-30 g were fasted for 16 h with free access to water prior to the experiment. Mice were administrated compound of example 2 or vehicle, 30 min after administration of 0.5 ml of carmine dye solution. Mice were sacrificed 3 h after dye administration and the distance traveled by the dye from proximal colon was measured. Colonic transit was expressed as % colonic transit=100×(length of colon in which carmine moved/total length of colon).

Bounds are passed on as bounds.

5-HT4 receptors, sequence (Q13639 whole entry): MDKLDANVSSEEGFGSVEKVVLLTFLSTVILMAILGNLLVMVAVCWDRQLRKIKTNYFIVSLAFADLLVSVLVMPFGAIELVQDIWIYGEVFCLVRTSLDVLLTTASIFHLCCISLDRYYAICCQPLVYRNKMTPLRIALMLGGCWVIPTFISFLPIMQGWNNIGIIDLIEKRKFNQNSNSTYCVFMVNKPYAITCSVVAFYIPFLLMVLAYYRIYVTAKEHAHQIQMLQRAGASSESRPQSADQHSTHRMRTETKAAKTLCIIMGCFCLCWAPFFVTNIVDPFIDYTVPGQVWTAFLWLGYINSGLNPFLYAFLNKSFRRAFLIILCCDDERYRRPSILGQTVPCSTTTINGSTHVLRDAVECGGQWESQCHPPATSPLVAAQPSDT
hERG tail currents in HEK293-hERG cells, sequence (Q12809 whole entry): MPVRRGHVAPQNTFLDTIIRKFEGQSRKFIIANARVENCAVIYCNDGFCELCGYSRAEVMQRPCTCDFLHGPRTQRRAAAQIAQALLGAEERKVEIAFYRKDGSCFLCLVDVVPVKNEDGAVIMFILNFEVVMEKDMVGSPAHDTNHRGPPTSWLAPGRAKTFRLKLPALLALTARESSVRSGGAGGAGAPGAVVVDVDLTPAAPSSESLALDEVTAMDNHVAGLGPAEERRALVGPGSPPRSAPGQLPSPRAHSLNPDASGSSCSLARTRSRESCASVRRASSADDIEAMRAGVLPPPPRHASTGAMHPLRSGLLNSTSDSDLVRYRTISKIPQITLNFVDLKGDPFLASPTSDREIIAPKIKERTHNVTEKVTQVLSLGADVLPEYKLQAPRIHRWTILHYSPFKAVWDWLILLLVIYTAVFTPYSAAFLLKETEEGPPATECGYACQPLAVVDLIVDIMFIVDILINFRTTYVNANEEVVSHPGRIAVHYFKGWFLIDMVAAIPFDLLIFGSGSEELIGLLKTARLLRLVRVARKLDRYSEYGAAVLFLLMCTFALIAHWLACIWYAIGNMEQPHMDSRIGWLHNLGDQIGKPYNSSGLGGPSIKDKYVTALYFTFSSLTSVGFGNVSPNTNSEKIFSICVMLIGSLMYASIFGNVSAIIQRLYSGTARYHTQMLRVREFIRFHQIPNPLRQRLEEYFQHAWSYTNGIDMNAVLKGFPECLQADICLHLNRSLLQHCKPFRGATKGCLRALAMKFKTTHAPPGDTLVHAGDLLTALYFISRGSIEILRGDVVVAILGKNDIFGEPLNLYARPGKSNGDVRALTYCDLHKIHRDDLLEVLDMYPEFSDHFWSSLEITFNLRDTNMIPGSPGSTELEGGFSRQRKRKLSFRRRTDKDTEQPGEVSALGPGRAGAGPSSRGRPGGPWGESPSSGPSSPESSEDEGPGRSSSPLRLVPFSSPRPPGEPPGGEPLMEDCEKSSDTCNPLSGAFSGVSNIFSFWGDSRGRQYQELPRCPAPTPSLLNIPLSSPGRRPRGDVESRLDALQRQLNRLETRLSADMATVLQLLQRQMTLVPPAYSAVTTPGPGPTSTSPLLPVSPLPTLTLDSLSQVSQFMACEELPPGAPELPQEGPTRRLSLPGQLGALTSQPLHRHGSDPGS

For orientation: EC50 means the concentration that produces a half-maximal response. Turning to `CC(C)n1c(=O)c(C(=O)NC2CC3CCC(C2)N3C[C@@H](O)CN(C)S(C)(=O)=O)cc2cccn21.O=C(O)C(O)C(O)C(=O)O` (single isomer, unassigned) [Example 2], the half-maximal effective concentration (EC50) at 5-HT4 receptors was found to be 4.1 nM. Further, the IC50 in data set [1] is over 10 µM. Besides, in data set [2], the Kp came to 0. The gastric emptying entry in the data set on gastric emptying (clonidine-treated (10 μg/kg s.c.) beagle dogs, plasma APAP) is recorded as “enhanced the gastric emptying in dose dependent manner”. Further, the gastric motor activity entry in the data set with gastric emptying (clonidine-treated beagle dogs) is given as “increased gastric motor activity”. Moreover, the colonic transit result in the data set with colonic transit is recorded as “increased the colonic transit”.
